Measured values: patent publication US4833156A, “Treating amnesia with a pyrrolidone derivative” (Kirin Beer Kabushiki Kaisha, priority 1987, dated 1989)

Legend:
[1] = tested on: scopolamine induced amnesia in rats; assay: Rat delayed-matching test (scopolamine-induced amnesia); format: in vivo, rat (SD, male, 150 to 300 g); conditions: for remission of scopolamine induced amnesia: oral, 20 min before test, (-)-scopolamine hydrochloride 0.06 mg/kg s.c., delay times 0.1, 4, 16, 32 s, FIG. 3 and FIG. 4
Text: An apparatus equipped with two lever switches on the respective sides of the front face of the inside of an operant experimental box (25×31×33 cm), red lamps just above respective levers and a white lamp at a further upper position was used for the experiment. A rat bred under restricted feeding (SD, male, 150 to 300 g) was placed in the apparatus. Either one of the red lamps arranged on the right and left sides was lit for 5 seconds, and, at a specific time (delayed time) after it was turned off, the white lamp at the center was lit. The system of the apparatus was so set that if the lever which was at the side of the red lamp having lit was pushed, a feed pellet (ca. 50 mg) was given as a correct choice, and if another lever was pushed no pellet was given as an incorrect choice. After the training had been conducted to ensure that, in the test of delay time being 0.1 sec, the correct choice rate was maintained at the level of 80% or more for three consecutive days, the test was conducted. In the test, delay times were set at 0.1, 4, 16 and 32 seconds, and, at each of the delay times, 6 runs were conducted at random (24 runs in total, 1 run/minute). […] N-(4'-chlorobenzenesulfonyl)-2-pyrrolidone and aniracetam were administered orally in the form of suspensions in 0.3% Tween 80 at 20 minutes before test.

[2] = tested on: proline specific endopeptidase; assay: Inhibition of proline specific endopeptidase activity (residual peptidase activity); format: biochemical; conditions: inhibitor concentration not given
Method: The inhibitory effects of the compounds represented by the formula (I) were determined by measuring the residual peptidase activity. The experimental procedure was agreed with the method by Tadashi Yoshimoto and Daisuke Tsuru: Tanpakushitsu, Kakusan and Koso, 29 (2), 127 (1984).

[3] = tested on: cycloheximide (CXM)-induced amnesia in mice; assay: Mouse step-down test (cycloheximide-induced amnesia); format: in vivo, mouse (ddY, male, 5 to 6 week old); conditions: conclusion for the mouse step-down test
Method: The test was carried out in accordance with the method described by Nabeshima et al.: Psychopharmacology, (1986) 89, 334-337. That is, a wooden platform (4×4×4 cm) was placed in the center on a floor of a stainless steel grid (30×30 cm), and the whole apparatus was surrounded with clear acrylic resin plates. In acquisition test, a mouse (ddY, male, 5 to 6 week old) was placed on the platform, and electric stimulus was applied for 20 seconds immediately after the mouse stepped down on the grid. Then the mouse was taken out of the apparatus and cycloheximide hydrochloride (30 mg/kg) was administered subcutaneously in order to induce amnesia. In the retention test, the mouse was again placed on the platform, and the time before the mouse stepped down on the grid was measured as the step-down latency. N-(4'-chlorobenzenesulfonyl)-2-pyrrolidone and aniracetam were individually suspended in 0.3% Tween 80 and administered orally at 20 minutes before acquisition test.

ddY male mice = assay: Acute toxicity, oral administration to mice; format: in vivo, mouse (ddY; conditions: 7 week old, result in words
Text: (§1) Acute toxicity was evaluted by oral administration of the compounds to ddY male mice (7 week old).

[4] = Acute toxicity, oral administration to mice; format: in vivo, mouse (ddY; conditions: mouse, in vivo, ddY male mice, 7 week old
Text: as §1

| Compound | anti-amnestic effect compared with aniracetam ([1]; conclusion for the rat delayed-matching test) | remission of scopolamine induced amnesia [1] | Residual Activity [2] | anti-amnestic effect compared with aniracetam [3] | safety (ddY male mice) | LD50 [4] |
| --- | --- | --- | --- | --- | --- | --- |
| O=C1CCCN1S(=O)(=O)c1ccc(Cl)cc1 [Synthetic Example 3,4, N-(4'-chlorobenzenesulfonyl)-2-pyrrolidone] | exhibited an anti-amnestic effect and was more effective than aniracetam | showed remission of scopolamine induced amnesia at several dosages and delay times | 51.3 | exhibited an anti-amnestic effect and was more effective than aniracetam | High level of safety | ≥ 2000 mg/kg |
| COc1ccc(C(=O)N2CCCC2=O)cc1 [Aniracetam, aniracetam, reference compound] | – | did not remitted at all scopolamine induced amnesia | 89.5 | – | – | – |
| O=C1CCCN1S(=O)(=O)c1ccccc1 [Synthetic Example 5,6, N-benzenesulfonyl-2-pyrrolidone] | – | – | 51.3 | – | – | – |
| Cc1ccc(S(=O)(=O)N2CCCC2=O)cc1 [Synthetic Example 1,2, N-(4'-toluenesulfonyl)-2-pyrrolidone] | – | – | 47.4 | – | – | – |
